From patent publication US8426447B2, “Spiro-tricyclic ring compounds as beta-secretase modulators and methods of use” (Amgen Inc., priority 2008, dated 2013)
Each block holds one compound with its values, some of them ahead of it.

Columns and labels:
BACE1 [1] = biological target: T1, BACE1 (Homo sapiens, UniProt P56817); assay: In Vitro BACE Cell-based Assay (HEK cell assay): Aβ40 in conditioned medium of cells stably expressing Amyloid Precursor Protein, sandwich ELISA; settings: read-out: HEK cell assay
In short: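 Read-out is time-resolved fluorescence of Aβ40 in supernatant, captured by pAb40 and detected with biotinylated 6E10 plus Streptavidin-Europium. Cells stably expressing APP received compounds for 24 h over 10 concentrations starting at 100 μM or 10 μM, final DMSO 0.1%.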

BACE1 [2] = biological target: T1, BACE1; assay: In Vitro Enzymatic BACE FRET (Fluorescence Resonance Energy Transfer) Assay; format: biochemical; settings: read-out: BACE1 FRET assay
In short: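 Run in 0.05 M acetate pH 4.2 with 10% DMSO final and 100 uM genapol detergent below its CMC. Reaction was started with 50 nM FRET peptide substrate (fluorophore and quencher flanking the BACE cleavage site), incubated one hour, stopped with Tris to neutral pH, and fluorescence read.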

T1 sequence (P56817 46-501, species assumed): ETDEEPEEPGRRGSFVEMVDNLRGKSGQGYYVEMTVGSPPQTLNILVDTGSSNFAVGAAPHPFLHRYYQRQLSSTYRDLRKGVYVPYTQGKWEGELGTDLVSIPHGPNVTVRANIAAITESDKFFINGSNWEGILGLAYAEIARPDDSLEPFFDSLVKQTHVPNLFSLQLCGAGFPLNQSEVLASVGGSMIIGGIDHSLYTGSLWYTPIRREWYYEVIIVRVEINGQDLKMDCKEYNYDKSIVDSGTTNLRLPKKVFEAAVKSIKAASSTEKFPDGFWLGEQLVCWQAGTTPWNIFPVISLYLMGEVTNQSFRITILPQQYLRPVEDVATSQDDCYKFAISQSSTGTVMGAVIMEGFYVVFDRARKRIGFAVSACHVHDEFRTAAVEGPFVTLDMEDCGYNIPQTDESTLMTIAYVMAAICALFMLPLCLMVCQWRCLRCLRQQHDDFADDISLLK

SMILES: NC1=N[C@]2(CO1)c1cc(Br)ccc1Oc1c(F)cccc12 [compound 559]
IC50 (BACE1 [1]; Table IV, class symbols): > 5 µM
IC50 (BACE1 [2]; Table IV, class symbols): > 5 µM

SMILES: NC1=N[C@@]2(CO1)c1cc(-c3ccccc3F)ccc1Oc1ncc(C3=CCOCC3)cc12 [compound 488]
IC50 (BACE1 [1]; HEK cells): < 0.1 µM
IC50 (BACE1 [2]): < 0.1 µM

SMILES: NC1=N[C@@]2(CO1)c1cc(-c3cncnc3)ccc1Oc1c(F)cc(OCC3CC3(F)F)cc12 (some centres unmarked) [compound 507]
IC50 (BACE1 [1]; HEK cells): < 0.1 µM
IC50 (BACE1 [2]): < 0.1 µM

SMILES: COc1ccncc1-c1ccc2c(c1)[C@@]1(COC(N)=N1)c1cc(OCC(C)(C)C)ccc1O2 [compound 217]
IC50 (BACE1 [1]; Table III, IC50's in uM ranges): 1 to 5 µM
IC50 (BACE1 [2]; Table III, IC50's in uM ranges): 0.1 to 1 µM

SMILES: NC1=N[C@]2(CO1)c1cc(C3=CCOCC3)ccc1Oc1cc(F)c(-c3cncnc3)cc12 [compound 529]
IC50 (BACE1 [1]; HEK cells): < 0.1 µM
IC50 (BACE1 [2]): < 0.1 µM

SMILES: CC(C)(F)COc1cnc2c(c1)[C@]1(COC(N)=N1)c1cc(-c3cccnc3)ccc1O2 [compound 450]
IC50 (BACE1 [1]; HEK cells): < 0.1 µM
IC50 (BACE1 [2]): < 0.1 µM

SMILES: COc1ccc2c(c1)[C@]1(COC(N)=N1)c1cc(NC(=O)[C@@H](C)OC)ccc1O2 [compound 536]
IC50 (BACE1 [1]; Table IV, class symbols): 0.1 to 1 µM
IC50 (BACE1 [2]; Table IV, class symbols): 0.1 to 1 µM

SMILES: COC(=O)CN1CCN(c2cc3c(cn2)Oc2ccc(-c4cccnc4)cc2[C@@]32COC(N)=N2)CC1 [compound 438]
IC50 (BACE1 [1]; HEK cells): < 0.1 µM
IC50 (BACE1 [2]): < 0.1 µM

SMILES: CC(=O)c1ccccc1-c1ccc2c(c1)[C@]1(COC(N)=N1)c1cc(OCC(C)(C)C)ccc1O2 [compound 190]
IC50 (BACE1 [1]; Table III, IC50's in uM ranges): > 5 µM
IC50 (BACE1 [2]; Table III, IC50's in uM ranges): 0.1 to 1 µM

SMILES: NC1=N[C@@]2(CO1)c1cc(-c3cncnc3)ccc1Oc1cnc(Cl)cc12 [compound 500]
IC50 (BACE1 [1]; HEK cells): 1 to 5 µM
IC50 (BACE1 [2]): 0.1 to 1 µM

SMILES: CC1(C)C[C@H](c2cc3c(cn2)Oc2ccc(-c4cccnc4F)cc2[C@@]32COC(N)=N2)CCO1 [compound 432]
IC50 (BACE1 [1]; HEK cells): < 0.1 µM
IC50 (BACE1 [2]): < 0.1 µM

SMILES: COCC[C@H]1CN(c2ccc3c(c2)[C@]2(COC(N)=N2)c2cc(-c4cccnc4)ccc2O3)CCO1 [compound 361]
IC50 (BACE1 [1]; HEK cell-based assay, Aβ40 in conditioned medium, IC50 class symbols): < 0.1 µM
IC50 (BACE1 [2]; in vitro BACE FRET enzyme assay, IC50 class symbols): 0.1 to 1 µM

Other lines, results leading:

IC50 (BACE1 [1]; Table IV, class symbols): 0.1 to 1 µM
IC50 (BACE1 [2]; Table IV, class symbols): < 0.1 µM
SMILES: COc1ccc2c(c1)[C@]1(COC(N)=N1)c1c(ccc(-c3cncnc3)c1F)O2 [compound 814]

IC50 (BACE1 [1]; Table IV, class symbols): < 0.1 µM
IC50 (BACE1 [2]; Table IV, class symbols): < 0.1 µM
SMILES: CC(C)(C)COc1ccc2c(c1)[C@@]1(COC(N)=N1)c1cc(-c3cccnc3F)cnc1O2 [compound 870]

IC50 (BACE1 [1]): 1 to 5 µM
IC50 (BACE1 [2]): 0.1 to 1 µM
SMILES: NC1=N[C@]2(CO1)c1cc(-c3cccnc3)ccc1Oc1cnc(Cl)cc12 [compound 953]

IC50 (BACE1 [1]): > 5 µM
IC50 (BACE1 [2]): 1 to 5 µM
SMILES: CC(C)(C)COc1ccc2c(n1)[C@@]1(COC(N)=N1)c1cc(Br)ccc1O2 [compound 736]

IC50 (BACE1 [1]): 0.1 to 1 µM
IC50 (BACE1 [2]): < 0.1 µM
SMILES: NC1=N[C@]2(CO1)c1cc(-c3ccc(OC(F)F)cc3)ccc1Oc1ccc(-c3cncnc3)cc12 [compound 773]

IC50 (BACE1 [1]): > 5 µM
IC50 (BACE1 [2]): 1 to 5 µM
SMILES: NC1=N[C@@]2(CO1)c1cc(Br)ccc1Oc1ccc(C#CC3(O)CCC3)cc12 [compound 957]

IC50 (BACE1 [1]; Table IV, class symbols): 0.1 to 1 µM
IC50 (BACE1 [2]; Table IV, class symbols): 0.1 to 1 µM
SMILES: NC1=N[C@@]2(CO1)c1cc(C(=O)N3CCCC3)ccc1Oc1ccc(-c3cccnc3)cc12 [compound 872]

IC50 (BACE1 [1]): 0.1 to 1 µM
IC50 (BACE1 [2]): 0.1 to 1 µM
SMILES: Cc1ccc(-c2ccc3c(c2)[C@]2(COC(N)=N2)c2cc(OCC(C)(C)C)ccc2O3)cn1 [compound 786]

IC50 (BACE1 [1]; Table IV, class symbols): > 5 µM
IC50 (BACE1 [2]; Table IV, class symbols): 1 to 5 µM
SMILES: CC(C)(C)COc1ccc2c(c1)[C@]1(COC(N)=N1)c1ccccc1O2 [compound 655]

IC50 (BACE1 [1]; Table IV, class symbols): 1 to 5 µM
IC50 (BACE1 [2]; Table IV, class symbols): < 0.1 µM
SMILES: CC(C)(C)COc1ccc2c(c1)[C@]1(COC(N)=N1)c1cc(-c3ccc(C#N)nc3)ccc1O2 [compound 882]

IC50 (BACE1 [1]): 1 to 5 µM
IC50 (BACE1 [2]): 0.1 to 1 µM
SMILES: CC(C)(C)COc1ccc2c(c1)[C@]1(COC(N)=N1)c1cc(C3=CCCC3)ccc1O2 [compound 731]

IC50 (BACE1 [1]): 1 to 5 µM
IC50 (BACE1 [2]): 0.1 to 1 µM
SMILES: CC(=O)c1cccc(-c2ccc3c(c2)[C@@]2(COC(N)=N2)c2cc(OCC(C)(C)C)ccc2O3)c1 [compound 973]

IC50 (BACE1 [1]): < 0.1 µM
IC50 (BACE1 [2]): < 0.1 µM
SMILES: NC1=N[C@@]2(CO1)c1cc(-c3cccnc3)ccc1Oc1cnc([C@@H]3CCCCO3)cc12 [compound 696]
